In US11485733B2, “Azaquinoline derivatives” (BAYER ANIMAL HEALTH GMBH, priority 2017, dated 2022) one finds EC50 and inhibition data, which are given here for 8 compounds.

The target in one assay is D. immitis Slo-1 (Dirofilaria immitis, UniProt I0DFK5). Description: D. immitis Slo-1, action at a recombinant CHO cell line (membrane potential, FLIPR). In kind it is cell-based.
Assay [1] relates to Nippostrongylus brasiliensis. The experiment in a line: Nippostrongylus brasiliensis (NIPOBR) adult worms, acetylcholine esterase readout. To be noted: read-out: activity (reduction of AChE compared to negative control); for inhibition at 1 µg/mL: at 1 μg/ml (1 ppm); for inhibition at 10 µg/mL: at 10 μg/ml (10 ppm). The protocol:
In Vitro Assay 3: Nippostrongylus brasiliensis (NIPOBR)
Adult Nippostrongylus brasiliensis were washed with saline buffer containing 100 U/ml penicillin, 0.1 mg/ml streptomycin and 2.5 μg/ml amphotericin B. Test compounds were dissolved in DMSO and worms were incubated in medium in a final concentration of 10 μg/ml (10 ppm) respectively 1 μg/ml (1 ppm). An aliquot of the medium was used to determine the acetylcholine esterase activity in comparison to a negative control. The principle of measuring acetylcholine esterase as readout for anthelmintic activity was described in Rapson et al (1986) and Rapson et al (1987).

The test system of assay [2] is Dirofilaria immitis microfilariae. Description: Dirofilaria immitis microfilariae (DIROIM L1) motility. To be noted: 72 h, read-out: EC50 (reduction of motility).
For another assay, the system named is Dirofilaria immitis. The experiment in a line: Dirofilaria immitis (DIROIM L4) larval motility. To be noted: 72 h, read-out: EC50 (reduction of motility).

Sequence of D. immitis Slo-1 (I0DFK5 1-1119): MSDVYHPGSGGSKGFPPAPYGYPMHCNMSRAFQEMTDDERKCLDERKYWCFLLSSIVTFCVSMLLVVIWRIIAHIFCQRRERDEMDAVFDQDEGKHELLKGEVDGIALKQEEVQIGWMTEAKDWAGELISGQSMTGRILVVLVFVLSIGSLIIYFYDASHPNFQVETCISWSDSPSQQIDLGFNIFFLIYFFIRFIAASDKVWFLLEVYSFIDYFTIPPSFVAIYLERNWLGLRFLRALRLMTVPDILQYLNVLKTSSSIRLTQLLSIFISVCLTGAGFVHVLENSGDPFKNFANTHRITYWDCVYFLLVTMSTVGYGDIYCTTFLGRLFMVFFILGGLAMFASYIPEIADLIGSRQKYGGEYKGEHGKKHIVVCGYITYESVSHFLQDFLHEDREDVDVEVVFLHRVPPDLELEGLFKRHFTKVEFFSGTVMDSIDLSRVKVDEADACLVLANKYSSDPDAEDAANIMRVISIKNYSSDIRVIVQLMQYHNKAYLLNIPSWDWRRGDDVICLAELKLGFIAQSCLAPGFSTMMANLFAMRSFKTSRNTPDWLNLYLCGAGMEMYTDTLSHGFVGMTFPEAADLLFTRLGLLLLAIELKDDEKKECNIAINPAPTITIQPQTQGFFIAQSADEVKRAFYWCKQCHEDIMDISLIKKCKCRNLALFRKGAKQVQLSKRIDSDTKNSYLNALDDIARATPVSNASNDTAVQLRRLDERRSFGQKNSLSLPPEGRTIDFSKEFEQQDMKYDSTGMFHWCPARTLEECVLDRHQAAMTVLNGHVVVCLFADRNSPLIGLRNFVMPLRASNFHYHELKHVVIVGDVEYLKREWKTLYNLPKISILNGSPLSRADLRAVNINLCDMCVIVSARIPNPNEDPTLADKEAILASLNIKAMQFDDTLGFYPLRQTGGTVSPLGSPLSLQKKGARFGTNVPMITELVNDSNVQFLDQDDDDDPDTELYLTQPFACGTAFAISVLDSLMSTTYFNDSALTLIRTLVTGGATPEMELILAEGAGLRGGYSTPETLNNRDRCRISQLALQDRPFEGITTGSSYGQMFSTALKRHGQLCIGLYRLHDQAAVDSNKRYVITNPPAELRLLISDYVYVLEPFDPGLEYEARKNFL

Broadly, the EC50 is the concentration that produces a half-maximal response. With `COc1cnc2c(N3CCOCC3)c(C(=O)N[C@H]3CCOc4ccccc43)cnc2c1-c1cc(F)cc(F)c1F` [Example T3-16, N-[(4S)-3,4-dihydro-2H-1-benzopyran-4-yl]-7-methoxy-4-(morpholin-4-yl)-8-(2,3,5-trifluorophenyl)-1,5-naphthyridine-3-carboxamide], the EC50 was 3.16 to 31.6 nM at D. immitis Slo-1, below 0.1 µg/mL in assay [2] and below 0.1 µg/mL with Dirofilaria immitis. Besides, the inhibition at 1 µg/mL in assay [1] is above 80%. For the same compound, in assay [1], the inhibition at 10 µg/mL was above 80%.

On to `CN(C)c1c(C(=O)N[C@H]2CCOc3ccccc32)cnc2c(-c3cc(F)cc(F)c3F)c(F)cnc12` [Example T3-19, N-[(4S)-3,4-dihydro-2H-1-benzopyran-4-yl]-4-(dimethylamino)-7-fluoro-8-(2,3,5-trifluorophenyl)-1,5-naphthyridine-3-carboxamide], for which the EC50 at D. immitis Slo-1 was 3.16 to 31.6 nM; in assay [2], below 0.1 µg/mL; in the assay with Dirofilaria immitis, below 0.1 µg/mL. Further, the inhibition at 1 µg/mL in assay [1] was above 80%. Further, the inhibition at 10 µg/mL in assay [1] was above 80%.

On to `CN(C)c1c(C(=O)N[C@H]2CCOc3ccccc32)cnc2c(-c3cc(Cl)cc(Cl)c3)c(Cl)cnc12` [Example T3-7, 7-chloro-8-(3,5-dichlorophenyl)-N-[(4S)-3,4-dihydro-2H-1-benzopyran-4-yl]-4-(dimethylamino)-1,5-naphthyridine-3-carboxamide], for which the results for the 50% effective concentration (EC50) (at D. immitis Slo-1; in assay [2]; in the assay with Dirofilaria immitis) were 3.16 to 31.6 nM, below 0.1 µg/mL and below 0.1 µg/mL, respectively.

As for `CN(C)c1c(C(=O)N[C@H]2CCOc3ccccc32)cnc2c(-c3cc(Cl)cc(Cl)c3)c(F)cnc12` [Example T3-11, 8-(3,5-dichlorophenyl)-N-[(4S)-3,4-dihydro-2H-1-benzopyran-4-yl]-4-(dimethylamino)-7-fluoro-1,5-naphthyridine-3-carboxamide], the EC50 is 3.16 to 31.6 nM on D. immitis Slo-1, below 0.1 µg/mL in assay [2] and below 0.1 µg/mL in the assay with Dirofilaria immitis. Also, in assay [1], the inhibition at 1 µg/mL was above 80%. The inhibition at 10 µg/mL in assay [1] is above 80%.

For `CN(C)c1c(C(=O)N[C@H]2CCOc3ccccc32)cnc2c(-c3cc(F)cc(F)c3F)c(Cl)cnc12` [Example T3-5, 7-chloro-N-[(4S)-3,4-dihydro-2H-1-benzopyran-4-yl]-4-(dimethylamino)-8-(2,3,5-trifluorophenyl)-1,5-naphthyridine-3-carboxamide], the figures for the EC50 (on D. immitis Slo-1; in assay [2]; with Dirofilaria immitis) were 3.16 to 31.6 nM, below 0.1 µg/mL and below 0.1 µg/mL, respectively.

`O=C(N[C@H]1CCOc2ccccc21)c1cnc2c(-c3cc(F)cc(F)c3F)c(Cl)cnc2c1N1CCOCC1` [Example T3-6, 7-chloro-N-[(4S)-3,4-dihydro-2H-1-benzopyran-4-yl]-4-(morpholin-4-yl)-8-(2,3,5-trifluorophenyl)-1,5-naphthyridine-3-carboxamide]: the EC50 at D. immitis Slo-1 was 3.16 to 31.6 nM; in assay [2], below 0.1 µg/mL; in the assay on Dirofilaria immitis, below 0.1 µg/mL.

Regarding `COc1ncc2c(N(C)C)c(C(=O)N[C@H]3CCOc4ccccc43)cnc2c1-c1cccc(Cl)c1Cl` [Example T2-7, 8-(2,3-dichlorophenyl)-N-[(4S)-3,4-dihydro-2H-1-benzopyran-4-yl]-4-(dimethylamino)-7-methoxy-1,6-naphthyridine-3-carboxamide], the results for the EC50 (at D. immitis Slo-1; in assay [2]; in the assay with Dirofilaria immitis) were 3.16 to 31.6 nM, below 0.1 µg/mL and below 0.1 µg/mL, respectively.

For `COc1ncc2c(N3CCOCC3)c(C(=O)N[C@H]3CCOc4ccccc43)cnc2c1-c1cccc(Cl)c1Cl` [Example T2-6, 8-(2,3-dichlorophenyl)-N-[(4S)-3,4-dihydro-2H-1-benzopyran-4-yl]-7-methoxy-4-(morpholin-4-yl)-1,6-naphthyridine-3-carboxamide], the values for the EC50 (on D. immitis Slo-1; in assay [2]; with Dirofilaria immitis) were 3.16 to 31.6 nM, below 0.1 µg/mL and below 0.1 µg/mL, respectively.
